Measurements taken from US20220098154A1 (IDEAYA Biosciences, Inc., priority 2019, published 2022).
pIC50: −log10 of the molar value.

molecular target: T1, Pol theta polymerase domain (residues 1819-2590) (Homo sapiens, UniProt O75417); assay: Primer extension assay: inhibition of polymerase activity of Pol theta (molecular beacon fluorescence); format: biochemical; conditions: Pol theta polymerase domain 4 nM; 15 min pre-incubation; fluorescence change over 30 min (ex 485 nm, em 535 nm); 11-point dilution series
T1 construct: Pol theta polymerase domain (residues 1819-2590)
T1 sequence (O75417 1819-2590): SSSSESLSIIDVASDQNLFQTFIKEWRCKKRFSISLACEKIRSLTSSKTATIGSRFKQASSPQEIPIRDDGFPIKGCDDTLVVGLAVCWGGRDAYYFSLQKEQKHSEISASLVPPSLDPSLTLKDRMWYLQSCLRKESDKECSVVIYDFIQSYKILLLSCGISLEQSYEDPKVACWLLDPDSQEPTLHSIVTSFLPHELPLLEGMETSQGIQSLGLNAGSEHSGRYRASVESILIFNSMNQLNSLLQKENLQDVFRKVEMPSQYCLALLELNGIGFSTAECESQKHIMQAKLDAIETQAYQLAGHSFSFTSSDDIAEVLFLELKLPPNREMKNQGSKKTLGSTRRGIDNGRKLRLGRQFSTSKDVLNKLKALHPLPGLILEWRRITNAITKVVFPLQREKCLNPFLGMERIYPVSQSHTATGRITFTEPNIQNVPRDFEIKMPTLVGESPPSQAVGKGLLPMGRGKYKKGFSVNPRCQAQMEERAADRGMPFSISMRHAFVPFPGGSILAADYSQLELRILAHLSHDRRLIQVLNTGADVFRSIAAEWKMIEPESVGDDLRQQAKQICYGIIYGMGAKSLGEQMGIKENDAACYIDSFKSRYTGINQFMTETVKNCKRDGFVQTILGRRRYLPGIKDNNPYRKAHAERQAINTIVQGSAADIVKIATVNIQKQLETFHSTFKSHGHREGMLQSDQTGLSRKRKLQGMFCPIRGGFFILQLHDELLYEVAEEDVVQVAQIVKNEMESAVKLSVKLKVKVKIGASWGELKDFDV
Description: The ability of the compounds of Formula (I) to inhibit polymerase activity of Pol theta was determined using the assay described below.
A mixture of 20 uL of Pol theta polymerase domain (residues 1819-2590) at a final concentration of 4 nM in assay buffer (20 m M TRIS, pH 7.80, 50 mM KCl, 10 mM MgCl2, 1 mM DTT, 0.01% BSA, 0.01% Tween20) was added to test compounds (11-point dilution series of test compounds) except the low control wells without test compounds. The above enzyme and test compound inhibitor mixture was then incubated at room temperature for 15 min. An equal volume (20 μl) of dNTP substrate mixture (48 μM) and primed molecular beacon DNA (obtained by annealing template SEQ ID NO 2: (5′-CCTTCCTCCCGTGTCTTG-TACCTTCCCGTCA-GGAGGAAGG-3′) with 5′-TAMRA and 3′-BHQ and primer DNA (SEQ ID NO: 3; 5′-GACGGGAAGG-3′) in 10 mM Tris-HCl pH 8.0, 100 mM NaCl buffer) (96 nM) in assay buffer was added to all the test wells. The inhibition activity was measured by monitoring the fluorescence change over 30 min at 535 nm upon excitation at 485 nm. The high control (DMSO with enzyme) with high fluorescence intensity represents no inhibition of polymerase reaction while the low control (DMSO with buffer) with low fluorescence intensity represents full inhibition of polymerase activity. Slope of the reaction progress curves were used to calculate the rate of polymerization. The rates were used to determine the percent inhibition using a four-parameter inhibition model to generate IC50, Hill slope and max inhibition.

Compared with `Cc1nc(NCC(=O)N(C)c2ccccc2)c(C#N)cc1Cl` [Example 38, 2-(5-chloro-3-cyano-6-methylpyridin-2-ylamino)-N-methyl-N-phenylacetamide], `Cc1cc(NCC(=O)N(C)c2ccccc2)nc(C)c1Cl` [Example 34, 2-[(5-chloro-4,6-dimethylpyridin-2-yl)amino]-N-methyl-N phenylacetamide] is lower in pIC50: 6.30 to 6.70 for the first, 6.00 to 6.30 for the second.

`CN(C(=O)CNc1nc(C(F)(F)F)cc(C(F)(F)F)c1C#N)c1ccc(OC(F)(F)F)cc1` [Example 6, 2-((3-cyano-4,6-bis(trifluoromethyl)pyridin-2-yl)-amino)-N-methyl-N-(4-(trifluoromethoxy)phenyl)-acetamide] and `COc1ccc(N(C)C(=O)CNc2nc(C(F)(F)F)cc(C(F)(F)F)c2C#N)cc1` [Example 9, 2-[[3-cyano-4,6-bis(trifluoromethyl)pyridin-2-yl]-amino]-N-(4-methoxyphenyl)-N-methylacetamide] cannot be ordered by pIC50: > 6.70 for the first, > 6.70 for the second.

`Cc1cc2cc(N(C)C(=O)CNc3nc(C(F)(F)F)cc(C(F)(F)F)c3C#N)ccc2o1` [Example 52, 2-((3-cyano-4,6-bis(trifluoromethyl)pyridin-2-yl)amino)-N-methyl-N-(2-methylbenzofuran-5-yl)acetamide] and `CN(C(=O)CNc1nc(C(F)(F)F)cc(C(F)(F)F)c1C#N)c1ccc2c(ccn2C)c1` [Example 55, 2-((3-cyano-4,6-bis(trifluoromethyl)pyridin-2-yl)amino)-N-methyl-N-(1-methyl-1H-indol-5-yl)acetamide] cannot be ordered by pIC50: > 6.70 for the first, > 6.70 for the second.

`Cc1nc(OCC(=O)N(C)c2ccc(Br)cc2)c(C#N)c(C)c1Cl` [Example 35, N-(4-bromophenyl)-2-[(5-chloro-3-cyano-4,6-dimethylpyridin-2-yl)oxy]-N-methylacetamide] and `COc1ccc(N(C)C(=O)CNc2nc(C)c(Cl)c(C)c2C#N)cc1` [Example 22, 2-(5-chloro-3-cyano-4,6-dimethylpyridin-2-ylamino)-N-(4-methoxyphenyl)-N-methylacetamide] cannot be ordered by pIC50: > 6.70 for the first, > 6.70 for the second.

`Cc1nc(NCC(=O)N(C)c2ccc(F)cc2)c(C#N)c2c1CCC2` [Example 28, 2-(4-cyano-1-methyl-6,7-dihydro-5H-cyclopenta[c]-pyridin-3-ylamino)-N-(4-fluorophenyl)-N-methylacetamide] and `Cc1c(C#N)c(NCC(=O)N(C)c2ccc(F)cc2)nc2c1CCC2` [Example 27, 2-([3-cyano-4-methyl-5H,6H,7H-cyclopenta[b]-pyridin-2-yl]amino)-N-(4-fluorophenyl)-N-methylacetamide] cannot be ordered by pIC50: > 6.70 for the first, > 6.70 for the second.

`CN(C(=O)CNc1nc(C(F)(F)F)cc(C(F)(F)F)c1C#N)c1cc(Cl)cc(Cl)c1` [Example 60, 2-((3-cyano-4,6-bis(trifluoromethyl)pyridin-2-yl)amino)-N-(3,5-dichlorophenyl)-N-methylacetamide] and `CN(C(=O)CNc1nc(C(F)(F)F)cc(C(F)(F)F)c1C#N)c1ccc(F)cc1` [Example 10, 2-(3-cyano-4,6-bis(trifluoromethyl)pyridin-2-yl-amino)-N-(4-fluorophenyl)-N-methylacetamide] cannot be ordered by pIC50: > 6.70 for the first, > 6.70 for the second.

`CN(C(=O)CNc1nc(C(F)(F)F)cc(C(F)(F)F)c1C#N)c1ccc2c(c1)ncn2C` [Example 50, 2-((3-cyano-4,6-bis(trifluoromethyl)pyridin-2-yl)amino)-N-methyl-N-(1-methyl-1H-benzo[d]imidazol-5-yl)acetamide] and `CN(C(=O)CNc1nc(C(F)(F)F)cc(C(F)(F)F)c1C#N)c1ccc2c(cnn2C)c1` [Example 54, 2-((3-cyano-4,6-bis(trifluoromethyl)pyridin-2-yl)amino)-N-methyl-N-(1-methyl-1H-indazol-5-yl)acetamide] cannot be ordered by pIC50: > 6.70 for the first, > 6.70 for the second.

`CN(C(=O)CNc1nc(C(F)(F)F)cc(C(F)(F)F)c1C#N)c1ccc2nccnc2c1` [Example 58, 2-((3-cyano-4,6-bis(trifluoromethyl)pyridin-2-yl)amino)-N-methyl-N-(quinoxalin-6-yl)acetamide] and `CN(C(=O)CNc1nc(C(F)(F)F)cc(C(F)(F)F)c1C#N)c1ccc2[nH]ccc2c1` [Example 56, 2-((3-cyano-4,6-bis(trifluoromethyl)pyridin-2-yl)amino)-N-(1H-indol-5-yl)-N-methylacetamide] cannot be ordered by pIC50: > 6.70 for the first, > 6.70 for the second.

`CN(C(=O)CNc1cc(C(F)(F)F)cc(C(F)(F)F)c1)c1ccc(F)cc1` [Example 12, 2-((3,5-bis(trifluoromethyl)phenyl)amino)-N-(4-fluorophenyl)-N-methylacetamide] and `CN(C(=O)CNc1nc(C(F)(F)F)cc(C(F)(F)F)n1)c1ccc(F)cc1` [Example 2, 2-(4,6-bis(trifluoromethyl)pyrimidin-2-ylamino)-N-(4-fluoro-phenyl)-N-methylacetamide] cannot be ordered by pIC50: > 6.70 for the first, > 6.70 for the second.

First: CN(C(=O)CNc1nc(C(F)(F)F)cc(C(F)(F)F)c1C#N)c1cccc(C(N)=O)c1 [Example 1, 3-(2-(3-cyano-4,6-bis(trifluoromethyl)pyridin-2-yl-amino)-N-methylacetamido)benzamide]
Second: [2H]C([2H])([2H])N(C(=O)CNc1nc(C(F)(F)F)cc(C(F)(F)F)c1C#N)c1ccc(F)cc1 [Example 47, 2-((3-cyano-4,6-bis(trifluoromethyl)pyridin-2-yl)amino)-N-(4-fluorophenyl)-N-(methyl-d3)acetamide]
The pIC50 of the first is lower: 6.00 to 6.30 for the first, > 6.70 for the second. The second is the more potent here.

`Cc1nc(NCC(=O)N(C)c2ccc(F)cc2)c(Cl)c(C)c1Cl` [Example 23, 2-(3,5-dichloro-4,6-dimethylpyridin-2-ylamino)-N-(4-fluoro-phenyl)-N-methylacetamide] and `Cc1nc(NCC(=O)N(C)c2ccc(Cl)c(Cl)c2)c(C#N)c(C)c1Cl` [Example 32, 2-(5-chloro-3-cyano-4,6-dimethylpyridin-2-ylamino)-N-(3,4-dichlorophenyl)-N-methylacetamide] cannot be ordered by pIC50: > 6.70 for the first, > 6.70 for the second.

First: Cc1nc(NCC(=O)N(c2ccc(Cl)cc2)C(C)C)c(C#N)c(C)c1Cl [Example 30, 2-[(5-chloro-3-cyano-4,6-dimethylpyridin-2-yl)-amino]-N-(4-chlorophenyl)-N-(propan-2-yl)-acetamide]
Second: Cc1c(C#N)c(NCC(=O)N(C)c2ccc(F)cc2)nc2ccccc12 [Example 29, 2-[(3-cyano-4-methylquinolin-2-yl)amino]-N-(4-fluorophenyl)-N-methylacetamide]
The pIC50 of the first is higher: 6.30 to 6.70 for the first, 6.00 to 6.30 for the second. The first is the more potent here.

First: CN(C(=O)CNc1cc(Cl)cc(C(F)(F)F)c1C#N)c1ccc(F)cc1 [Example 11, 2-[[5-chloro-2-cyano-3-(trifluoromethyl)phenyl]-amino]-N-(4-fluorophenyl)-N-methylacetamide]
Second: CN(C(=O)COc1cc(Cl)cc(C(F)(F)F)c1)c1ccc(F)cc1 [Example 14, 2-[3-chloro-5-(trifluoromethyl)phenoxy]-N-(4-fluoro-phenyl)-N-methylacetamide]
The pIC50 of the first is higher: > 6.70 for the first, 6.30 to 6.70 for the second. The first is the more potent here.

`N#Cc1c(C(F)(F)F)cc(C(F)(F)F)nc1NCC(=O)N(c1ccc(F)cc1)C1CC1` [Example 4, 2-((3-cyano-4,6-bis(trifluoromethyl)pyridin-2-yl)-amino)-N-cyclopropyl-N-(4-fluorophenyl)acetamide] was tested, and the pIC50 was > 6.70.
